According to patent publication US5338726A, “Endothelin converting enzyme inhibitors” (Abbott Laboratories, priority 1992, dated 1994):
Structures can show the parent of a compound that is named as a salt.

Molecular target: solubilized endothelin converting enzyme (P3 from rat lung)
Experiment: ECE Inhibitor Screening Assay
Format: biochemical
Settings: Big ET substrate, 30 minutes at 37° C., HPLC of ET-1 and Big ET, read-out: Inhibition of Endothelin Converting Enzyme IC50
Procedure: The above mixture without the test compound was used as the control.
Following a 15 minute preincubation at 37° C., benzyl succinate (100 μM), NaOAc, and Big ET (3 μg) were added. The mixture was incubated for 30 minutes at 37° C., followed by addition of pepstatin (40 μM) and 10% TFA to stop the reaction. The mixture was vortexed, centrifuged and the supernatant retained for HPLC determination of Big ET, ET-1 and CTF. […] Percent inhibiton calculations were made with reference to controls based on quantitation of the ET-1 and Big ET peaks at the end of the incubation period.

SMILES | IC50 [nM]
CCOC(=O)CC(O)C(CC(C)C)NC(=O)C(NC(=O)[C@@H](NC(=O)OC(C)(C)C)C(C)(C)C)C(C)CC (stereo partly drawn) [Example 1, N-{(S)-2-[(tert-Butyloxycarbonyl]amino]-3,3-dimethylbutanoyl}-Isoleucyl-Statyl Ethyl ester] | 50
CCC(C)C(NC(=O)OC(C)(C)C)C(=O)NC(C(=O)NC(CC(C)C)C(O)CC(=O)NCCCCO)C(C)CC (stereo not shown) [Example 6, N-Boc-Isoleucyl-Isoleucyl-Statyl (4-Hydroxybutyl)carboxamide] | 57
CCC(C)C(NC(=O)OC(C)(C)C)C(=O)NC(C(=O)NC(CC(C)C)C(O)CC(=O)NCCCCCO)C(C)CC (stereo not shown) [Example 7, N-Boc-Isoleucyl-Isoleucyl-Statyl (5-Hydroxyamyl)carboxamide] | 68
CCC(C)C(NC(=O)OC(C)(C)C)C(=O)NC(C(=O)NC(CC(C)C)C(O)CC(=O)NCCCCCCO)C(C)CC (stereo not shown) [Example 8, N-Boc-Isoleucyl-Isoleucyl-Statyl (6-Hydroxyhexyl)carboxamide] | 39
CCOC(=O)CC(O)C(CC(C)C)NC(=O)C(NC(=O)C(CC1CCCCC1)NC(=O)OC(C)(C)C)C(C)CC (stereo not shown) [Example 12, N-Boc-Cyclohexylalanyl-Isoleucyl-Statyl Ethyl ester] | 19
CCOC(=O)CCNC(=O)CC(O)C(CC(C)C)NC(=O)C(NC(=O)C(NC(=O)OC(C)(C)C)C(C)CC)C(C)CC (stereo not drawn) [Example 13, N-Boc-Isoleucyl-Isoleucyl-Statyl-β-Alanyl Ethyl ester] | 17
CCC(C)C(NC(=O)OC(C)(C)C)C(=O)NC(C(=O)NC(CC(C)C)C(O)CC(=O)NCC(C)C)C(C)CC (stereo not shown) [Example 14, N-Boc-Isoleucyl-Isoleucyl-Statyl Isobutylcarboxamide] | 8
CCC(C)C(NC(=O)C(CC1CCCCC1)NC(=O)OC(C)(C)C)C(=O)NC(CC(C)C)C(O)CC(=O)O (stereo not shown) [Example 15, N-Boc-Cyclohexylalanyl-Isoleucyl-Statyl-OH] | 47
CCC(C)C(NC(=O)OC(C)(C)C)C(=O)NC(C(=O)NC(CC(C)C)C(O)CC(=O)NCCC(=O)O)C(C)CC (stereo not drawn) [Example 16, N-Boc-Isoleucyl-Isoleucyl-Statyl-β-Alanyl-OH] | 30
CCC(C)C(NC(=O)C(CC1CCCCC1)NC(=O)OC(C)(C)C)C(=O)N[C@@H](Cc1c[nH]c2ccccc12)C(O)CC(=O)NC(C(=O)O)C(C)C (stereo partly drawn) [Example 23, N-[(4S)-4-(N-Boc-Cyclohexylalanyl-Isoleucyl-Amino)-5-(3-indolyl)-3-hydroxypentanoyl]-Valyl-OH] | 24
CC[C@H](C)[C@H](NC(=O)OC(C)(C)C)C(=O)N[C@H](C(=O)N[C@@H](CC1CCCCC1)[C@@H](O)[C@@H](O)CC(C)C)[C@@H](C)CC [Example 24, (2S,3R,4S)-2-(N-Boc-Isoleucyl-Isoleucyl-Amino)-1-cyclohexyl-3,4-dihydroxy-6-methylheptane] | 7
CC[C@H](C)[C@H](NC(=O)CCC(=O)O)C(=O)N[C@H](C(=O)N[C@@H](CC1CCCCC1)[C@@H](O)[C@@H](O)CC(C)C)[C@@H](C)CC [Example 25, (2S,3R,4S)-2-(N-Succinyl-Isoleucyl-Isoleucyl-Amino)-1-cyclohexyl-3,4-dihydroxy-6-methylheptane] | 17
CCC(C)C(NC(=O)C(CC(=O)OCc1ccccc1)NC(=O)OC(C)(C)C)C(=O)NC(C(=O)N[C@@H](CC1CCCCC1)[C@@H](O)[C@@H](O)CC(C)C)C(C)CC (stereo partly drawn) [Example 26, (2S,3R,4S)-2-(N-BOC-Aspartyl(β-O-Benzyl)-Isoleucyl-Isoleucyl -Amino)-1-cyclohexyl-3,4-dihydroxy-6-methylheptane] | 7
CC[C@H](C)[C@H](NC(C)=O)C(=O)N[C@H](C(=O)N[C@@H](CC1CCCCC1)[C@@H](O)[C@@H](O)CC(C)C)[C@@H](C)CC [Example 27, (2S,3R,4S)-2-(N-Acetyl-Isoleucyl-Isoleucyl-Amino)-1-cyclohexyl-3,4-dihydroxy-6-methylheptane] | 29
CCC(C)C(NC(=O)C(CC1CCCCC1)NC(=O)OC(C)(C)C)C(=O)N[C@@H](CC1CCCCC1)[C@@H](O)[C@@H](O)CC(C)C (stereo partly shown) [Example 28] | 9
CC[C@H](C)[C@H](NC(=O)OCc1ccccc1)C(=O)N[C@H](C(=O)NC(CC(C)C)P(=O)(O)CC(=O)OC(C)(C)C)[C@@H](C)CC (stereo partly shown) [Example 33, [1-[N-Cbz-Isoleucyl-Isoleucyl-Amino]-3-methylbutyl (hydroxy)phosphinyl]acetic acid tert-Butyl ester] | 33

SMILES | IC50 [nM]
CCC(C)C(NC(=O)OC(C)(C)C)C(=O)NC(C(=O)NC(CC(C)C)C(O)CC(=O)NCCC(C)C)C(C)CC (stereo not shown) [Example 34, N-Boc-Isoleucyl-Isoleucyl-Statyl Isoamylcarboxamide] | 19
CCC(C)C(NC(=O)OC(C)(C)C)C(=O)NC(C(=O)NC(CC(C)C)C(O)CC(=O)NCC1CCCCC1)C(C)CC (stereo not shown) [Example 35, N-Boc-Isoleucyl-Isoleucyl-Statyl Cyclohexylmethylcarboxamide] | 17
CCC(C)C(NC(=O)C(CC1CCCCC1)NC(=O)OC(C)(C)C)C(=O)NC(CC(C)C)C(O)CC(=O)NCC(C)C (stereo not shown) [Example 39, N-Boc-Cyclohexylalanyl-Isoleucyl-Statyl Isobutylcarboxamide] | 9.5
CCC(C)C(NC(=O)C(CC1CCCCC1)NC(=O)OC(C)(C)C)C(=O)NC(CC(C)C)C(O)CC(=O)NCCc1ccccn1 (stereo not shown) [Example 40, N-Boc-Cyclohexylalanyl-Isoleucyl-Statyl N-(2-(2-Pyridyl)ethyl)Carboxamide] | 10
CCC(C)C(NC(=O)C(CC1CCCCC1)NC(=O)OC(C)(C)C)C(=O)NC(CC(C)C)C(O)CC(=O)NCCN(C)C (stereo not shown) [Example 41, N-Boc-Cyclohexylalanyl-Isoleucyl-Statyl N-(2-N',N'-Dimethylaminoethyl)Carboxamide] | 18
CCC(C)C(NC(=O)C(CC1CCCCC1)NC(=O)OC(C)(C)C)C(=O)NC(CC(C)C)C(O)CC(=O)NCCN1CCOCC1 (stereo not shown) [Example 42, N-Boc-Cyclohexylalanyl-Isoleucyl-Statyl N-(2-(Morpholin-4-yl)ethyl)Carboxamide] | 16
CCC(C)C(NC(=O)C(CC1CCCCC1)NC(=O)N1CCN(C)CC1)C(=O)N[C@@H](Cc1ccc2ccccc2c1)[C@@H](O)[C@@H](O)CC(C)C (stereo partly drawn) [Example 43, (2S,3R,4S)-2-{[IN-(4-Methylpiperazin-1-yl-carbonyl)-Cyclohexylalanyl-Isoleucyl]amino}-1-(2-naphthyl)-3,4-dihydroxy-6-methylheptane Hydrochloride] | 6
CCC(C)C(NC(=O)C(CC(C)(C)C)NC(=O)OC(C)(C)C)C(=O)NC(CC(C)C)C(O)CC(=O)O (stereo not shown) [Example 45, N-Boc-tert-Butylalanyl-Isoleucyl-Statyl-OH] | 51
CCC(C)C(NC(=O)C(CC(=O)OCc1ccccc1)NC(=O)OC(C)(C)C)C(=O)NC(C(=O)N[C@@H](Cc1ccc2ccccc2c1)[C@@H](O)[C@@H](O)CC(C)C)C(C)CC (stereo partly drawn) [Example 46, (2S,3R,4S)-2-{[N-Boc-Aspartyl(β-O-Benzyl)-Isoleucyl-Isoleucyl]amino}-1-(2-naphthyl)-3,4-dihydroxy-6-methylheptane] | 4
CCC(C)C(NC(=O)OC(C)(C)C)C(=O)NC(C(=O)NC(CC(C)C)C(O)CC(=O)NCCc1ccccn1)C(C)CC (stereo not shown) [Example 47, N-Boc-Isoleucyl-Isoleucyl-Statyl N-(2-(2-Pyridyl)ethyl)Carboxamide] | 20
CCC(C)C(NC(=O)C(CC1CCCCC1)NC(=O)CCC(=O)O)C(=O)N[C@@H](Cc1ccc2ccccc2c1)[C@@H](O)[C@@H](O)CC(C)C (stereo partly drawn) [Example 48, (2S,3R,4S)-2-{[N-Succinyl-Cyclohexylalanyl-Isoleucyl]amino}-1-(2-naphthyl)-3,4-dihydroxy-6-methylheptane] | 7
CCC(C)C(NC(=O)OC(C)(C)C)C(=O)NC(C(=O)NC(CC(C)C)C(O)CC(=O)N(C)CC(C)C)C(C)CC (stereo not shown) [Example 52, N-Boc-Isoleucyl-Isoleucyl-Statyl N-Methyl-N-Isobutyl Carboxamide] | 10
CCC(C)C(NC(=O)C(CC1CCCCC1)NC(=O)N1CCOCC1)C(=O)N[C@@H](Cc1ccc2ccccc2c1)[C@@H](O)[C@@H](O)CC(C)C (stereo partly drawn) [Example 53, (2S,3R,4S)-2-{[N-(Morpholin-1-yl-carbonyl)-Cyclohexylalanyl-Isoleucyl]amino}-1-(2-naphthyl)-3,4-dihydroxy-6-methylheptane] | 3
CC[C@H](C)[C@H](NC(=O)[C@H](C)N(C(=O)N(C)CCN(C)C)C1CCCCC1)C(=O)N[C@@H](Cc1ccc2ccccc2c1)[C@@H](O)[C@@H](O)CC(C)C [Example 54, (2S,3R,4S)-2-{[{N-(N,N-Dimethylaminoethyl)-N-methylamino}carbonyl -Cyclohexylalanyl-Isoleucyl]amino}-1-(2-naphthyl)-3,4-dihydroxy-6-methylheptane] | 5
CC[C@H](C)[C@H](NC(=O)[C@H](C)N(C1CCCCC1)S(=O)(=O)N1CCN(C)CC1)C(=O)N[C@@H](Cc1ccc2ccccc2c1)[C@@H](O)[C@@H](O)CC(C)C [Example 55, (2S,3R,4S)-2-{[N-(4-Methylpiperazin-1-yl-sulfonyl)-Cyclohexylalanyl-Isoleucyl]amino}-1-(2-naphthyl)-3,4-dihydroxy-6-methylheptane] | 5
